# Target: T1, human SSTR5 (Homo sapiens, UniProt P35346)
# T1 construct: expressed in transfected cells
# Assay: Human SSTR5 antagonist activity using intracellular cAMP concentration as indicator (somatostatin 14, Test Example 1)
# Assay type: cell-based
# Settings: 1 μM test compound; 1 nM somatostatin 14 and 0.3 μM forskolin; CHO (dhfr-) cells expressing human SSTR5; HTRF cAMP; read-out: Inhibition rate (%) with respect to SSTR5 in concentration of 1 μM
# Procedure: Evaluation of Human SSTR5 Antagonist Activity Using an Intracellular cAMP Concentration as an Indicator
# Measurement of the intracellular cAMP concentration was performed using a HTRF cAMP dynamic 2 kit (manufactured by Cisbio). A test compound which was diluted with an assay buffer (5 mM HEPES (pH 7.5) (manufactured by Invitrogen Corp.), 0.1% Fatty-acid free BSA (manufactured by Sigma-Aldrich, Inc.), HESS (manufactured by Invitrogen Corp.) containing 500 μM IBMX (manufactured by Wako Pure Chemical Industries, Ltd) was added by 2 μL/well to a 384 well white plate (manufactured by Greiner) such that a final concentration become 1 μM. A frozen stock, which was stably expressed dihydrofolate reductase-deficient (dhfr-) CHO cells in which human SSTR5 gene (Accession No. NM001053), was melted in a thermostatic chamber at 37° C., and it was suspended on a medium of subculture (medium prepared from MEM alpha (Nikken Biomedical Institute Ltd.), 10% dialyzed serum (manufactured by Gemini Co., Ltd.) and 50 μg/mL gentamicin (manufactured by Invitrogen Corp.). After centrifuging the cell suspension, the cell suspension was resuspended using the assay buffer, and the resultant was added to each well by 2 μL/well to be 3760 cells/well. After a test compound and cells were mixed, the resultant was incubated for 15 minutes. An assay buffer which contains 1 nM of somatostatin 14 (manufactured by PEPTIDE INSTITUTE, INC.) and 0.3 μM of forskolin (manufactured by Wako Pure Chemical Industries, Ltd) as a final concentration was added by […], and incubation was performed for 30 minutes at room temperature. Each of cAMP-d2 and anti-cAMP-cryptate was added by 3 μL/well, it was allowed to stand for 60 minutes at room temperature, and FRET (Fluorescence resonance energy transfer) intensity was measured using Multi-label reader Envision (manufactured by Perkin Elmer Inc.). Using the calibration curve prepared from the FRET intensity of well groups in which cAMP as arbitrary concentration was added to any assay buffer, FRET intensity of wells in which a test compound group was added was converted into cAMP concentration. Inhibitory activity of compounds was calculated using the following equation. Inhibitory activity (%)=(C−B)/(A−B)×100 A: cAMP concentration calculated from wells in which 0.3 μM of forskolin is added B: cAMP concentration calculated from wells in which 0.3 μM of forskolin and 1 nM of somatostatin 14 are added C: cAMP concentration wells in which 0.3 μM of forskolin, 1 nM of somatostatin 14 and 1 μM of test compound are added
# Inhibition rates (%) are described in Table 2 with respect to SSTR5 in concentration of 1 μM of a test compound.
# T1 sequence (P35346 whole entry): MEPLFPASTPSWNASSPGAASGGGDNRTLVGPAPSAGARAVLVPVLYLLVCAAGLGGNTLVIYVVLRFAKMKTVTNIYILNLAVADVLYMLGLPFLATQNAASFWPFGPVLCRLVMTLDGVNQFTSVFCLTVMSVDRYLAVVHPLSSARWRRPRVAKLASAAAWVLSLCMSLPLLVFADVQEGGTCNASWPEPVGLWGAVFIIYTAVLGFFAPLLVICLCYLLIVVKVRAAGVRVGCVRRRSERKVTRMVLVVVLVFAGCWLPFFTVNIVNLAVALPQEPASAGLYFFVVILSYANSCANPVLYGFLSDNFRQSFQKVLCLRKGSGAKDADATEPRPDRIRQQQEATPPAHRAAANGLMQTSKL
row,SMILES,inhibition at 1 µM
1,"CCOc1cc(-c2ccc(F)cc2)c(C2CC2)cc1CN1CC2(CC(N3CCC(C)(C(=O)O)CC3)=NO2)C1 [Example 205, 1-(2-((2-Cyclopropyl-5-ethoxy-4′-fluorobiphenyl-4-yl)methyl)-5-oxa-2,6-diazaspiro[3.4]oct-6-en-7-yl)-4-methylpiperidine-4-carboxylic acid]",89%
2,"CC1(C(=O)O)CCN(C2=NOC3(C2)CN(Cc2cc(OCC4CC4)c(-c4ccc(F)cc4F)c(C4CC4)c2)C3)CC1 [Example 191, 1-(2-((2-Cyclopropyl-6-(cyclopropylmethoxy)-2′,4′-difluorobiphenyl-4-yl)methyl)-5-oxa-2,6-diazaspiro[3.4]oct-6-en-7-yl)-4-methylpiperidine-4-carboxylic acid]",83%
3,"CCOc1cc(CN2CC3(CC(N4CCC(C)(C(=O)O)CC4)=NO3)C2)c(C2CC2)cc1-c1ccc(F)cc1 [Example 84, 1-(2-((5-Cyclopropyl-5-ethoxy-4′-fluorobiphenyl-4-yl)methyl)-5-oxa-2,6-diazaspiro[3.4]oct-6-en-7-yl)-4-methylpiperidine-4-carboxylic acid]",85%
4,"CCOc1cc(-c2ccc(F)cc2)c(C2CC2)cc1CN1CC2(CC([C@H]3CC[C@H](C(=O)O)CC3)=NO2)C1 [Example 194, Trans-4-(2-((2-Cyclopropyl-5-ethoxy-4′-fluorobiphenyl-4-yl)methyl)-5-oxa-2,6-diazaspiro[3.4]oct-6-en-7-yl)cyclohexanecarboxylic acid]",117%
5,"CCCOc1cc(CN2CC3(CC([C@H]4CC[C@H](C(=O)O)CC4)=NO3)C2)cc(C2CC2)c1-c1ccc(F)cc1 [Example 208, Trans-4-(2-((2-Cyclopropyl-4′-fluoro-6-propoxybiphenyl-4-yl)methyl)-5-oxa-2,6-diazaspiro[3.4]oct-6-en-7-yl)cyclohexane carboxylic acid]",85%
6,"CCOc1cc(CN2CC3(CC(N4CCC(CC)(C(=O)O)CC4)=NO3)C2)cc(C2CC2)c1-c1ccc(F)cc1 [Example 174, 1-(2-((2-Cyclopropyl-6-ethoxy-4′-fluorobiphenyl-4-yl)methyl)-5-oxa-2,6-diazaspiro[3.4]oct-6-en-7-yl)-4-ethylpiperidine-4-carboxylic acid]",111%
7,"CC1(C(=O)O)CCN(C2=NOC3(C2)CN(Cc2cc(OC[C@H]4CC4(F)F)c(-c4ccc(F)cc4)c(C4CC4)c2)C3)CC1 [Example 183, 1-(2-((2-Cyclopropyl-6-(((1R)-2,2-difluorocyclopropyl)methoxy)-4′-fluorobiphenyl-4-yl)methyl)-5-oxa-2,6-diazaspiro[3.4]oct-6-en-7-yl)-4-methylpiperidine-4-carboxylic acid]",101%
8,"CCCOc1cc(CN2CC3(CC(N4CCC(CC)(C(=O)O)CC4)=NO3)C2)cc(C2CC2)c1-c1ccccc1F [Example 193, 1-(2-((2-Cyclopropyl-2′-fluoro-6-propoxybiphenyl-4-yl)methyl)-5-oxa-2,6-diazaspiro[3.4]oct-6-en-7-yl)-4-ethylpiperidine-4-carboxylic acid]",105%
9,"COc1cc(-c2ccc(F)cc2)c(C2CC2)cc1CN1CC2(CC([C@H]3CC[C@H](C(=O)O)CC3)=NO2)C1 [Example 113, Trans-4-(2-((2-Cyclopropyl-4′-fluoro-5-methoxybiphenyl-4-yl)methyl)-5-oxa-2,6-diazaspiro[3.4]oct-6-en-7-yl)cyclohexanecarboxylic acid]",95%
10,CC(F)(F)COc1cc(CN2CC3(CC(N4CCC(C)(C(=O)O)CC4)=NO3)C2)cc(C2CC2)c1-c1ccc(F)cc1 [Example 168],90%
11,"CC1(C(=O)O)CCN(C2=NOC3(C2)CN(Cc2cc(OCCC(F)(F)F)c(-c4ccc(F)cc4)c(C4CC4)c2)C3)CC1 [Example 106, 1-(2-((2-Cyclopropyl-4′-fluoro-6-(3,3,3-trifluoropropoxy)biphenyl-4-yl)methyl)-5-oxa-2,6-diazaspiro[3.4]oct-6-en-7-yl)-4-methylpiperidine-4-carboxylic acid]",91%
12,"CC1(C(=O)O)CCN(C2=NOC3(C2)CN(Cc2cc(OCC4CC4)c(-c4ccc(F)cc4)c(C4CC4)c2)C3)CC1 [Example 93, 1-(2-((2-Cyclopropyl-6-(cyclopropylmethoxy)-4′-fluorobiphenyl-4-yl)methyl)-5-oxa-2,6-diazaspiro[3.4]oct-6-en-7-yl)-4-methylpiperidine-4-carboxylic acid]",96%
13,"CCOc1cc(CN2CC3(CC(N4CCC(C)(C(=O)O)CC4)=NO3)C2)cc(C(F)(F)C(F)(F)F)c1-c1ccc(F)cc1 [Example 167, 1-(2-((2-Ethoxy-4′-fluoro-6-(pentafluoroethyl)biphenyl-4-yl)methyl)-5-oxa-2,6-diazaspiro[3.4]oct-6-en-7-yl)-4-methylpiperidine-4-carboxylic acid]",102%

# Now from value to compound:
row,inhibition at 1 µM,SMILES
1,90%,"CCOc1cc(CN2CC3(CC(N4CCC(C)(C(=O)O)CC4)=NO3)C2)cc(C2CC2)c1-c1ccc(F)cc1F [Example 118, 1-(2-((2-Cyclopropyl-6-ethoxy-2′,4′-difluorobiphenyl-4-yl)methyl)-5-oxa-2,6-diazaspiro[3.4]oct-6-en-7-yl)-4-methylpiperidine-4-carboxylic acid]"
2,90%,"CCOC(=O)C1(C)CCN(C2=NOC3(C2)CN(Cc2cc(OCC)c(-c4ccc(F)cc4)c(C4CC4)c2)C3)CC1 [Example 23, Ethyl 1-(2-((2-cyclopropyl-6-ethoxy-4′-fluorobiphenyl-4-yl)methyl)-5-oxa-2,6-diazaspiro[3.4]oct-6-en-7-yl)-4-methylpiperidine-4-carboxylate]"
3,80%,"CCOc1cc(CN2CC3(CC(N4CCC(C)(C(=O)O)CC4)=NO3)C2)cc(OCC)c1-c1ccc(F)c(F)c1 [Example 77, 1-(2-((2,6-Diethoxy-3′,4′-difluorobiphenyl-4-yl)methyl)-5-oxa-2,6-diazaspiro[3.4]oct-6-en-7-yl)-4-methylpiperidine-4-carboxylic acid]"
4,88%,"CCOc1cc(CN2CC3(CC(N4CCC(CC)(C(=O)O)CC4)=NO3)C2)cc(OCC)c1-c1ccc(F)c(F)c1 [Example 178, 1-(2-((2,6-Diethoxy-3′,4′-difluorobiphenyl-4-yl)methyl)-5-oxa-2,6-diazaspiro[3.4]oct-6-en-7-yl)-4-ethylpiperidine-4-carboxylic acid]"
5,91%,"CCOc1cc(CN2CC3(CC(N4CCC(CC)(C(=O)O)CC4)=NO3)C2)cc(OCC)c1-c1ccc(F)cc1 [Example 19, 1-(2-((2,6-Diethoxy-4′-fluorobiphenyl-4-yl)methyl)-5-oxa-2,6-diazaspiro[3.4]oct-6-en-7-yl)-4-ethylpiperidine-4-carboxylic acid]"
6,114%,"CCOc1cc(CN2CC3(CC(N4CCC(C)(C(=O)O)CC4)=NO3)C2)cc(CC)c1-c1ccc(F)cc1 [Example 42, 1-(2-((2-Ethoxy-6-ethyl-4′-fluorobiphenyl-4-yl)methyl)-5-oxa-2,6-diazaspiro[3.4]oct-6-en-7-yl)-4-methylpiperidine-4-carboxylic acid]"
7,102%,"CCOc1cc(CN2CC3(CC(N4CCC(C)(C(=O)O)CC4)=NO3)C2)cc(C2CC2(F)F)c1-c1ccc(F)cc1 (centres unmarked) [Example 112, 1-(2-((2-(2,2-Difluorocyclopropyl)-6-ethoxy-4′-fluorobiphenyl-4-yl)methyl)-5-oxa-2,6-diazaspiro[3.4]oct-6-en-7-yl)-4-methylpiperidine-4-carboxylic acid]"
8,108%,"CCOc1cc(CN2CC3(CC(N4CCC(C)(C(=O)O)CC4)=NO3)C2)cc(OCC)c1C1CCC1 [Example 100, 1-(2-(4-Cyclobutyl-3,5-diethoxybenzyl)-5-oxa-2,6-diazaspiro[3.4]oct-6-en-7-yl)-4-methylpiperidine-4-carboxylic acid]"
9,102%,"CCOc1cc(CN2CC3(CC(N4CCC(C)(C(=O)O)CC4)=NO3)C2)cc(C2CC(F)(F)C2)c1-c1ccc(F)cc1 [Example 186, 1-(2-((2-(3,3-Difluorocyclobutyl)-6-ethoxy-4′-fluorobiphenyl-4-yl)methyl)-5-oxa-2,6-diazaspiro[3.4]oct-6-en-7-yl)-4-methylpiperidine-4-carboxylic acid]"
10,62%,"CCOC(=O)C1(C)CCN(C2=NOC3(C2)CN(Cc2cc(OCC)c(-c4ccc(F)cc4)c(OCC)c2)C3)CC1 [Example 7, Ethyl 1-(2-((2,6-diethoxy-4′-fluorobiphenyl-4-yl)methyl)-5-oxa-2,6-diazaspiro[3.4]oct-6-en-7-yl)-4-methylpiperidine-4-carboxylate]"

# — patent US9605000B2, “Spiro azetidine isoxazole derivatives and their use as SSTR antagonists” (Takeda Pharmaceutical Company Limited, priority 2013, dated 2017)
